{"source": "patent US6495330B1", "about": "“Materials and methods relating to the diagnosis and treatment of pre-eclampsia and diabetes” (Rodaris Pharmaceuticals Limited, priority 1996, dated 2002)", "tested_on": "rat adipocytes", "test": "IPG A-type bioassay: stimulation of lipogenesis ([U14C] glucose into lipids) in adipocytes", "format": "cell-based", "settings": "insulin standard assayed at the same time", "protocol": "The activity of P- and A-type IPGs in urine and placental extracts were studied using specific bioassay procedures. IPG P-type was determined using the activation of PDH phosphatase. The PDH complex and PDH phosphatase (metal-dependent form) were prepared from beef heart as described by Lilley et al. and the assay of the activation of the phosphatase was performed by the spectrophotometric variant of the two-stage system described by these authors. This assay is considered to be a characteristic feature of IPG P-type (see Larner et al.) . IPG A-type was determined by the stimulation of lipogenesis as measured by the incorporation of [U^14C] glucose into the lipids of adipocytes isolated from epididymal fat pads by the method of Rodbell. A high degree of specificity for IPG A-type was found for this bioassay.\nA straight line relationship between added IPGs and the stimulation of PDH phosphatase activity (IPG P-type) and lipogenesis in intact adipocytes (IPG A-type) was obtained; this relationship held at least up to a stimulation of +250%. These observations provided a basis for a unit to be defined and used for the purpose of comparison of yields of IPGs from different tissues and urine samples.\nA unit of IPG is defined as the amount causing a 50% activation in the basal level of the test system.", "data": [{"substance": "insulin [insulin standard]", "values": [{"measurement": "stimulation of lipogenesis above base-line", "result": "+258%"}]}]}
